Laboratory results from PubChem BioAssay (NCI).
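Values below derive from 48-hour exposures of cells grown in 96-well plates, with endpoints linearly interpolated between the two concentrations bracketing the appropriate inhibition level. Here, GI50 denotes the concentration required for 50% inhibition of growth. TGI: total growth inhibition.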

What was measured:
Assay in all cases: NCI tumour cell line growth inhibition, 48 h
[1] = test system: HCT-116 colon
[2] = test system: MCF7 breast
[3] = test system: DU-145 prostate
[4] = test system: HT29 colon
[5] = test system: HS 578T breast
[6] = test system: U251 CNS
[7] = test system: A549 NSCLC
[8] = test system: SW-620 colon
[9] = test system: HOP-92 NSCLC
[10] = test system: EKVX NSCLC
[11] = test system: A498 renal
[12] = test system: SN12C renal
[13] = test system: BT-549 breast
[14] = test system: IGROV1 ovarian
[15] = test system: SNB-19 CNS
[16] = test system: CAKI-1 renal
[17] = test system: SR leukemia
[18] = test system: SF-268 CNS
[19] = test system: CCRF-CEM leukemia
[20] = test system: NCI-H460 lung
[21] = test system: COLO 205 colon
[22] = test system: SK-OV-3 ovarian
[23] = test system: NCI-H23 lung
[24] = test system: SK-MEL-2 melanoma
[25] = test system: HOP-62 NSCLC
[26] = test system: SK-MEL-5 melanoma
[27] = test system: MALME-3M melanoma
[28] = test system: TK-10 renal
[29] = test system: M14 melanoma
[30] = test system: OVCAR-8 ovarian
[31] = test system: SK-MEL-28 melanoma
[32] = test system: UACC-62 melanoma
[33] = test system: KM12 colon
[34] = test system: ACHN renal
[35] = test system: HCC-2998 colon
[36] = test system: UACC-257 melanoma
[37] = test system: SNB-75 CNS
[38] = test system: 786-0 renal
[39] = test system: PC-3 prostate
[40] = test system: T-47D breast
[41] = test system: SF-295 CNS
[42] = test system: OVCAR-4 ovarian
[43] = test system: RPMI-8226 leukemia
[44] = test system: NCI-H226 lung
[45] = test system: SF-539 CNS
[46] = test system: MOLT-4 leukemia
[47] = test system: HL-60(TB) leukemia
[48] = test system: NCI/ADR-RES ovarian
[49] = test system: UO-31 renal
[50] = test system: OVCAR-5 ovarian
[51] = test system: OVCAR-3 ovarian
[52] = test system: MDA-MB-435
[53] = test system: LOX IMVI melanoma
[54] = test system: MDA-MB-231 breast
[55] = test system: RXF 393 renal
[56] = test system: HCT-15 colon
[57] = test system: K-562 leukemia

## O=C(Nc1cc(Cl)cc(Cl)c1)Nc1nc2ccc([N+](=O)[O-])cc2s1
[1]
  GI50: 570 nM
  TGI: 4760 nM
[2]
  GI50: 717 nM
  TGI: > 100000 nM
[3]
  GI50: 1720 nM
  TGI: > 100000 nM
[4]
  GI50: 1610 nM
  TGI: > 100000 nM
[5]
  GI50: 999 nM
  TGI: 4720 nM
[6]
  GI50: 909 nM
  TGI: > 100000 nM
[7]
  GI50: 1700 nM
  TGI: > 100000 nM
[8]
  GI50: 1630 nM
  TGI: 85700 nM
[9]
  GI50: 212 nM
  TGI: 670 nM
[10]
  GI50: 1140 nM
  TGI: 7630 nM
[11]
  GI50: 287 nM
  TGI: 1040 nM
[12]
  GI50: 752 nM
  TGI: 5620 nM
[13]
  GI50: 1680 nM
  TGI: 4660 nM
[14]
  GI50: 1770 nM
  TGI: 84500 nM
[15]
  GI50: 1190 nM
  TGI: 25700 nM
[16]
  GI50: 992 nM
  TGI: 8470 nM
[17]
  GI50: 320 nM
  TGI: 2100 nM
[18]
  GI50: 1610 nM
  TGI: > 100000 nM
[19]
  GI50: 429 nM
  TGI: 3880 nM
[20]
  GI50: 1480 nM
  TGI: > 100000 nM
[21]
  GI50: 646 nM
  TGI: 2210 nM
[22]
  GI50: 1450 nM
  TGI: 5600 nM
[23]
  GI50: 378 nM
  TGI: 2310 nM
[24]
  GI50: 771 nM
  TGI: 3830 nM
[25]
  GI50: 1780 nM
  TGI: 5500 nM
[26]
  GI50: 446 nM
  TGI: 1660 nM
[27]
  GI50: 518 nM
  TGI: 5720 nM
[28]
  GI50: 2210 nM
  TGI: 13300 nM
[29]
  GI50: 1880 nM
  TGI: 5790 nM
[30]
  GI50: 1740 nM
  TGI: > 100000 nM
[31]
  GI50: 1030 nM
  TGI: 3580 nM
[32]
  GI50: 569 nM
  TGI: 2210 nM
[33]
  GI50: 1160 nM
  TGI: 7330 nM
[34]
  GI50: 1370 nM
  TGI: 21800 nM
[35]
  GI50: 503 nM
  TGI: 4070 nM
[36]
  GI50: 950 nM
  TGI: 4840 nM
[37]
  GI50: 1040 nM
  TGI: 3830 nM
[38]
  GI50: 1470 nM
  TGI: 5860 nM
[39]
  GI50: 568 nM
  TGI: > 100000 nM
[40]
  GI50: 571 nM
  TGI: 6150 nM
[41]
  GI50: 524 nM
  TGI: 1920 nM
[42]
  GI50: 583 nM
  TGI: > 100000 nM
[43]
  GI50: 376 nM
  TGI: 1590 nM
[44]
  GI50: 1040 nM
  TGI: 3150 nM
[45]
  GI50: 1180 nM
  TGI: 5430 nM
[46]
  GI50: 685 nM
  TGI: 3230 nM
[47]
  GI50: 714 nM
  TGI: 2860 nM
[48]
  GI50: 800 nM
  TGI: 6200 nM
[49]
  GI50: 708 nM
  TGI: 2800 nM
[50]
  GI50: 2650 nM
  TGI: > 100000 nM
[51]
  GI50: 722 nM
  TGI: 8200 nM
[52]
  GI50: 1510 nM
  TGI: 6770 nM
[53]
  GI50: 839 nM
  TGI: 2440 nM
[54]
  GI50: 1190 nM
  TGI: 4120 nM
[55]
  GI50: 558 nM
  TGI: 2170 nM
[56]
  GI50: 769 nM
  TGI: > 100000 nM
[57]
  GI50: 504 nM
  TGI: > 24300 nM
